# Assay results from patent publication US11123337B2, “4-methylsulfonyl-substituted piperidine urea compounds” (MYOKARDIA, INC., priority 2015, dated 2021).
# Target: bovine cardiac myosin (Bos taurus, UniProt Q9BE39)
# Assay: Myosin activation assay (PK/LDH-coupled ATPase, bovine cardiac myofibrils)
# Assay type: biochemical
# Conditions: AC20 = concentration at which total response is increased by twenty percent
# Method in brief: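 Values are the concentrations raising the ATPase rate by 20% or 50% over DMSO, from 10-point dose responses fitted with four parameters. Rate is NADH loss at 340 nm via PK/LDH coupling, read 15 min at room temperature, in pH 6.8 PIPES with 50 μM ATP. Bovine cardiac myofibrils were held at pCa ~6 or pCa 10.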
# bovine cardiac myosin, sequence (Q9BE39 whole entry): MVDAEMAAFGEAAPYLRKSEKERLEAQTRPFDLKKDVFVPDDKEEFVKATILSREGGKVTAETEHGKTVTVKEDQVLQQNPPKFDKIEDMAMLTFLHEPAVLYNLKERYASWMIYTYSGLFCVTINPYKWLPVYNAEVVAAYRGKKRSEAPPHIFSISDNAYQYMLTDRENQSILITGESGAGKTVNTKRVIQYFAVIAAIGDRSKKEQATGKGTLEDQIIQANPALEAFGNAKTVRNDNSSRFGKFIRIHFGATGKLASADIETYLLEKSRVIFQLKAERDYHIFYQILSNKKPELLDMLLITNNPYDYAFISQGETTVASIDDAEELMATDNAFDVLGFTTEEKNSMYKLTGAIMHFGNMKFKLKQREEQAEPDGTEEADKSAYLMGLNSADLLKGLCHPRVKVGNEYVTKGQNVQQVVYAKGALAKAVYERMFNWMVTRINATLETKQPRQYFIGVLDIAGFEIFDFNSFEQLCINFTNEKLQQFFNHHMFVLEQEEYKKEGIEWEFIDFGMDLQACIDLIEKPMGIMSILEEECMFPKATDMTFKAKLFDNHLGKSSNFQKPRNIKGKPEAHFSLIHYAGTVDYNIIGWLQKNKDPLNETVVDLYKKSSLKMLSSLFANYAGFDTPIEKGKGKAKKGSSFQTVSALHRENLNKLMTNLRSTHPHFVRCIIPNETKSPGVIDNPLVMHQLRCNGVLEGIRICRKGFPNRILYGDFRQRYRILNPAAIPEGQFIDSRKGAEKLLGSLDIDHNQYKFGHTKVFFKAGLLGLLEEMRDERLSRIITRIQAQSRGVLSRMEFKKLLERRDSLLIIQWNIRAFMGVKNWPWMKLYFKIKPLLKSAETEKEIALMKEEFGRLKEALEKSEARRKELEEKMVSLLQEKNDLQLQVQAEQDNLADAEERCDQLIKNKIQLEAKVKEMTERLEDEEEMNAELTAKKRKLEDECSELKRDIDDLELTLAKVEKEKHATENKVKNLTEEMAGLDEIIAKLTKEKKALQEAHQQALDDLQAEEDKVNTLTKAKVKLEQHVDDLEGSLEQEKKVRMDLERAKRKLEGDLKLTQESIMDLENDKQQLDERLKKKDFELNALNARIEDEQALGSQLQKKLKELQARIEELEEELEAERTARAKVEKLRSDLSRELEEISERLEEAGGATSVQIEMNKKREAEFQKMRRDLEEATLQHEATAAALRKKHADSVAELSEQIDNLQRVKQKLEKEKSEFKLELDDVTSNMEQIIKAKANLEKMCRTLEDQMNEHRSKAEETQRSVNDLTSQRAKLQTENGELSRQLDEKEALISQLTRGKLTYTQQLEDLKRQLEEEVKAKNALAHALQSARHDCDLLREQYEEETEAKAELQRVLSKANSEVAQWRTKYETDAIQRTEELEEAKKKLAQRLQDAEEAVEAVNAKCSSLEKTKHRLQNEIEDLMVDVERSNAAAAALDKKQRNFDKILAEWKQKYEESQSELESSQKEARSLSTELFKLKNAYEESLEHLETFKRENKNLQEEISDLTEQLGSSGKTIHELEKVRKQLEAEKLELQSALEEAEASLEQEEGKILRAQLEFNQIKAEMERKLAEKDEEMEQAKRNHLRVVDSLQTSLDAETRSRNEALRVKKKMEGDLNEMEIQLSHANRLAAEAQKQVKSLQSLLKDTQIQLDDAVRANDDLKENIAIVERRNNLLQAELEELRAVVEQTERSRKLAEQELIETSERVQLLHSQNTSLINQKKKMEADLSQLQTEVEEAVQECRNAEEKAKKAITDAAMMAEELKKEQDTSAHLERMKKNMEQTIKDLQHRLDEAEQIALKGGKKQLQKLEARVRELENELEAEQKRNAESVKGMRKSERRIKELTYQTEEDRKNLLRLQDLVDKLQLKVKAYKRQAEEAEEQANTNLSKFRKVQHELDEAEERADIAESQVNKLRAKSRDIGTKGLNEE
# bovine cardiac myosin, sequence (P85100 whole entry partner): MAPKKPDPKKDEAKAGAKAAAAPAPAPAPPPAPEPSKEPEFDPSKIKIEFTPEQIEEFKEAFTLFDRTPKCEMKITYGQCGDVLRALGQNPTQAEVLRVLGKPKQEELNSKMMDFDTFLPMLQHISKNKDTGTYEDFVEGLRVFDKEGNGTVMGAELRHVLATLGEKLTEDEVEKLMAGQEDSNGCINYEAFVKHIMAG
# bovine cardiac myosin, sequence (Q3SZE5 whole entry partner): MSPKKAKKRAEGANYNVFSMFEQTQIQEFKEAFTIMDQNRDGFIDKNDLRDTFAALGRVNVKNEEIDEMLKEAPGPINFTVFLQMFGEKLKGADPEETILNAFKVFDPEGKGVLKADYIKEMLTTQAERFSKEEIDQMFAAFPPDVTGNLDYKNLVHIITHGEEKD
row,Structure (SMILES),Myosin Activation (AC20)
1,"O=C(Nc1ccnnc1)N1CCC(C(F)(F)S(=O)(=O)c2ccc(C(F)(F)F)c(F)c2)CC1 [Compound 69, 4-(difluoro((3-fluoro-4-(trifluoromethyl)phenyl)sulfonyl)methyl)-N-(pyridazin-4-yl)piperidine-1-carboxamide]",++ (++ represents myosin activation value AC20 from 2 μM-5 μM)
2,"Cn1nc(C(F)(F)F)cc1S(=O)(=O)[C@@](C)(F)C1CCN(C(=O)Nc2ccnc(F)c2)CC1 [Compound 296, (R)-4-(1-fluoro-1-((1-methyl-3-(trifluoromethyl)-1H-pyrazol-5-yl)sulfonyl)ethyl)-N-(2-fluoropyridin-4-yl)piperidine-1-carboxamide]",+++ (+++ represents myosin activation value AC20 < 2 μM)
3,"CC(F)(C1CCN(C(=O)Nc2ccc(F)nc2)CC1)S(=O)(=O)c1cccc(F)c1 (centres unmarked) [Compound 239, 4-(1-fluoro-1-((3-fluorophenyl)sulfonyl)ethyl)-N-(6-fluoropyridin-3-yl)piperidine-1-carboxamide]",++ (++ represents myosin activation value AC20 from 2 μM-5 μM)
4,"CC(C)(C1CCN(C(=O)Nc2ccncc2F)CC1)S(=O)(=O)c1cccc(F)c1 [Compound 177, 4-(2-((3-fluorophenyl)sulfonyl)propan-2-yl)-N-(3-fluoropyridin-4-yl)piperidine-1-carboxamide]",+ (+ represents myosin activation value AC20 > 5 μM)
5,"Cn1cc(S(=O)(=O)C(C)(F)C2CCN(C(=O)Nc3ccnc(F)c3)CC2)c(C(F)(F)F)n1 (centres unmarked) [Compound 245, 4-(1-fluoro-1-((1-methyl-3-(trifluoromethyl)-1H-pyrazol-4-yl)sulfonyl)ethyl)-N-(2-fluoropyridin-4-yl)piperidine-1-carboxamide]",++ (++ represents myosin activation value AC20 from 2 μM-5 μM)
6,"Cc1cnccc1NC(=O)N1CCC(C(C)(C)S(=O)(=O)c2cccc(F)c2)CC1 [Compound 214, 4-(2-((3-fluorophenyl)sulfonyl)propan-2-yl)-N-(3-methylpyridin-4-yl)piperidine-1-carboxamide]",+ (+ represents myosin activation value AC20 > 5 μM)
7,"Cn1cc(S(=O)(=O)C(F)(F)C2CCN(C(=O)Nc3ccnnc3)CC2)c(C(F)F)n1 [Compound 83, 4-(((3-(difluoromethyl)-1-methyl-1H-pyrazol-4-yl)sulfonyl)difluoromethyl)-N-(pyridazin-4-yl)piperidine-1-carboxamide]",++ (++ represents myosin activation value AC20 from 2 μM-5 μM)
8,"CC(C)(C1CCN(C(=O)Nc2ccc(F)nc2)CC1)S(=O)(=O)c1cccc(F)c1 [Compound 152, 4-(2-((3-fluorophenyl)sulfonyl)propan-2-yl)-N-(6-fluoropyridin-3-yl)piperidine-1-carboxamide]",++ (++ represents myosin activation value AC20 from 2 μM-5 μM)
9,"CC(C)(C1CCN(C(=O)Nc2ccnnc2)CC1)S(=O)(=O)c1ccc(C(F)(F)F)nc1 [Compound 171, N-(pyridazin-4-yl)-4-(2-((6-(trifluoromethyl)pyridin-3-yl)sulfonyl)propan-2-yl)piperidine-1-carboxamide]",++ (++ represents myosin activation value AC20 from 2 μM-5 μM)
10,"CC(F)(C1CCN(C(=O)Nc2ccnnc2)CC1)S(=O)(=O)c1ccc(C(F)(F)F)nc1 (centres unmarked) [Compound 262, 4-(1-fluoro-1-((6-(trifluoromethyl)pyridin-3-yl)sulfonyl)ethyl)-N-(pyridazin-4-yl)piperidine-1-carboxamide]",+++ (+++ represents myosin activation value AC20 < 2 μM)
11,"Cn1nccc1S(=O)(=O)C(C)(C)C1CCN(C(=O)Nc2cnns2)CC1 [Compound 193, 4-(2-((1-methyl-1H-pyrazol-5-yl)sulfonyl)propan-2-yl)-N-(1,2,3-thiadiazol-5-yl)piperidine-1-carboxamide]",+++ (+++ represents myosin activation value AC20 < 2 μM)
12,"CCC(F)(C1CCN(C(=O)Nc2ccnnc2)CC1)S(=O)(=O)c1cccc(F)c1 (centres unmarked) [Compound 77, 4-(1-fluoro-1-((3-fluorophenyl)sulfonyl)propyl)-N-(pyridazin-4-yl)piperidine-1-carboxamide]",++ (++ represents myosin activation value AC20 from 2 μM-5 μM)
13,"Cn1cc(S(=O)(=O)C(C)(F)C2CCN(C(=O)Nc3ccnnc3)CC2)c(C(F)F)n1 (centres unmarked) [Compound 276, 4-(1-((3-(difluoromethyl)-1-methyl-1H-pyrazol-4-yl)sulfonyl)-1-fluoroethyl)-N-(pyridazin-4-yl)piperidine-1-carboxamide]",+++ (+++ represents myosin activation value AC20 < 2 μM)
14,"CC(C)(C1CCN(C(=O)Nc2cncc(F)c2)CC1)S(=O)(=O)c1cccc(F)c1 [Compound 119, 4-(2-((3-fluorophenyl)sulfonyl)propan-2-yl)-N-(5-fluoropyridin-3-yl)piperidine-1-carboxamide]",++ (++ represents myosin activation value AC20 from 2 μM-5 μM)
15,"Cn1nccc1S(=O)(=O)C(C)(C)C1CCN(C(=O)Nc2ccon2)CC1 [Compound 128, N-(isoxazol-3-yl)-4-(2-((1-methyl-1H-pyrazol-5-yl)sulfonyl)propan-2-yl)piperidine-1-carboxamide]",++ (++ represents myosin activation value AC20 from 2 μM-5 μM)
16,"COc1ccc(S(=O)(=O)[C@](C)(F)C2CCN(C(=O)Nc3ccon3)CC2)cn1 [Compound 307, (S)-4-(1-fluoro-1-((6-methoxypyridin-3-yl)sulfonyl)ethyl)-N-(isoxazol-3-yl)piperidine-1-carboxamide]",+ (+ represents myosin activation value AC20 > 5 μM)
17,"Cc1ccc(F)cc1S(=O)(=O)C(F)(F)C1CCN(C(=O)Nc2ccnnc2)CC1 [Compound 63, 4-(difluoro((5-fluoro-2-methylphenyl)sulfonyl)methyl)-N-(pyridazin-4-yl)piperidine-1-carboxamide]",++ (++ represents myosin activation value AC20 from 2 μM-5 μM)
18,"COc1ncccc1S(=O)(=O)C(C)(F)C1CCN(C(=O)Nc2ccnnc2)CC1 (centres unmarked) [Compound 55, 4-(1-fluoro-1-((2-methoxypyridin-3-yl)sulfonyl)ethyl)-N-(pyridazin-4-yl)piperidine-1-carboxamide]",++ (++ represents myosin activation value AC20 from 2 μM-5 μM)
19,"Cc1cnc(NC(=O)N2CCC(C(C)(C)S(=O)(=O)c3cccc(F)c3)CC2)cn1 [Compound 125, 4-(2-((3-fluorophenyl)sulfonyl)propan-2-yl)-N-(5-methylpyrazin-2-yl)piperidine-1-carboxamide]",+ (+ represents myosin activation value AC20 > 5 μM)
20,"CC(F)(C1CCN(C(=O)Nc2ccc(F)nc2)CC1)S(=O)(=O)c1ccc(C(F)(F)F)cc1 (centres unmarked) [Compound 242, 4-(1-fluoro-1-((4-(trifluoromethyl)phenyl)sulfonyl)ethyl)-N-(6-fluoropyridin-3-yl)piperidine-1-carboxamide]",++ (++ represents myosin activation value AC20 from 2 μM-5 μM)
21,"CC(F)(C1CCN(C(=O)Nc2ccon2)CC1)S(=O)(=O)c1ccc(C(F)(F)F)cc1 (centres unmarked) [Compound 8, 4-(1-Fluoro-1-((4-(trifluoromethyl)phenyl)sulfonyl)ethyl)-N-(isoxazol-3-yl)piperidine-1-carboxamide]",+++ (+++ represents myosin activation value AC20 < 2 μM)
22,"O=C(Nc1ccnnc1)N1CCC(CS(=O)(=O)c2cccc(F)c2)CC1 [Compound 34, 4-(((3-fluorophenyl)sulfonyl)methyl)-N-(pyridazin-4-yl)piperidine-1-carboxamide]",+ (+ represents myosin activation value AC20 > 5 μM)
23,"CC(C)(C1CCN(C(=O)Nc2nccs2)CC1)S(=O)(=O)c1cccc(F)c1 [Compound 156, 4-(2-((3-fluorophenyl)sulfonyl)propan-2-yl)-N-(thiazol-2-yl)piperidine-1-carboxamide]",+ (+ represents myosin activation value AC20 > 5 μM)
24,"CC(C)(C1CCN(C(=O)Nc2ccnnc2)CC1)S(=O)(=O)c1ccc2ccnn2c1 [Compound 189, 4-(2-(pyrazolo[1,5-a]pyridin-6-ylsulfonyl)propan-2-yl)-N-(pyridazin-4-yl)piperidine-1-carboxamide]",+++ (+++ represents myosin activation value AC20 < 2 μM)
25,"CC(F)(C1CCN(C(=O)Nc2nnco2)CC1)S(=O)(=O)c1cccc(F)c1 (centres unmarked) [Compound 222, 4-(1-fluoro-1-((3-fluorophenyl)sulfonyl)ethyl)-N-(1,3,4-oxadiazol-2-yl)piperidine-1-carboxamide]",+ (+ represents myosin activation value AC20 > 5 μM)
26,"C[C@@H](O)c1cc(NC(=O)N2CCC(C(F)(F)S(=O)(=O)c3cn(C)nc3C(F)F)CC2)ccn1 [Compound 100, (R)-4-(((3-(difluoromethyl)-1-methyl-1H-pyrazol-4-yl)sulfonyl)difluoromethyl)-N-(2-(1-hydroxyethyl)pyridin-4-yl)piperidine-1-carboxamide]",+ (+ represents myosin activation value AC20 > 5 μM)
27,"Cn1nc(C(F)(F)F)cc1S(=O)(=O)C(C)(C)C1CCN(C(=O)Nc2ccc(F)nc2)CC1 [Compound 123, N-(6-fluoropyridin-3-yl)-4-(2-((1-methyl-3-(trifluoromethyl)-1H-pyrazol-5-yl)sulfonyl)propan-2-yl)piperidine-1-carboxamide]",++ (++ represents myosin activation value AC20 from 2 μM-5 μM)
28,"Cn1cnc(S(=O)(=O)C(C)(C)C2CCN(C(=O)Nc3ccnnc3)CC2)c1 [Compound 172, 4-(2-((1-methyl-1H-imidazol-4-yl)sulfonyl)propan-2-yl)-N-(pyridazin-4-yl)piperidine-1-carboxamide]",+ (+ represents myosin activation value AC20 > 5 μM)
29,"O=C(Nc1cnns1)N1CCC(C(F)(F)S(=O)(=O)c2cccc(F)c2)CC1 [Compound 44, 4-(difluoro((3-fluorophenyl)sulfonyl)methyl)-N-(1,2,3-thiadiazol-5-yl)piperidine-1-carboxamide]",+ (+ represents myosin activation value AC20 > 5 μM)
